# In patent publication US9580418B2, “Bicyclic aromatic carboxamide compounds useful as Pim kinase inhibitors” (Incyte Corporation, priority 2014, dated 2017):
# Experiments:
# Pim-1 = Pim-1 (Homo sapiens (Human), UniProt P11309); test: Pim-1 kinase assay (Pim enzyme assays, Example A); type: biochemical; conditions: 1 mM ATP, BAD peptide substrate; read-out: PIM1 IC50
# Method: (§1) Pim-1 and Pim-3 kinase assays-20 μL reactions were run in white 384 well polystyrene plates dotted with 0.8 μL compound/DMSO in the assay buffer (50 mM Tris, pH 7.5, 0.01% Tween-20, 5 mM mgCl2, 0.01% BSA, 5 mM DTT), containing 0.05 μM Biotin-labeled BAD peptide substrate (AnaSpec 62269), 1 mM ATP, and 2.5 pM (Pim-1, Invitrogen PV3503) or 1.25 pM (Pim-3, Millipore 14-738) enzyme for 1 h at 25° C. Reactions were stopped by addition of 10 μL STOP Buffer (150 mM Tris, pH=7.5, 150 mM NaCl, 75 mM EDTA, 0.01% Tween-20, 0.3% BSA,) supplemented with Phospho-Bad (Ser112) Antibody (Cell Signaling 9291) diluted 666-fold, and Streptavidin donor beads (PerkinElmer 6760002) along with Protein-A acceptor beads (PerkinElmer 6760137) at 15 μg/mL each. Supplementation of the STOP buffer with beads and stopping the reactions were done under reduced light. Prior to the stopping reactions STOP buffer with beads was preincubated for 1 h in the dark at room temperature. After stopping the reactions, plates were incubated for 1 h in the dark at room temperature before reading on a PHERAstar FS plate reader (BMG Labtech) under reduced light.
# Pim-2 = Pim-2 (Homo sapiens (Human), UniProt Q9P1W9); test: Pim-2 kinase assay (Pim enzyme assays, Example A); type: biochemical; conditions: 1 mM ATP, CREBtide peptide substrate; read-out: PIM2 IC50
# Method: Pim-2 kinase assay-20 μL reactions were run in white 384 well polystyrene plates dotted with 0.8 μL compound/DMSO in the assay buffer (50 mM Tris, pH 7.5, 0.01% Tween-20, 5 mM mgCl2, 0.01% BSA, 5 mM DTT), containing 0.05 μM Fluorescein-labeled CREBtide peptide substrate (Invitrogen PV3508), 1 mM ATP, and 1 nM enzyme (Invitrogen PV3649) for 2 h at 25° C. Reactions were stopped by addition of 10 μL TR-FRET Dilution Buffer (Invitrogen PV3574) with 30 mM EDTA and 1.5 nM LanthaScreen Tb-CREB pSer133 antibody (Invitrogen PV3566). After 30 min. incubation at room temperature, plates were read on a PHERAstar FS plate reader (BMG Labtech).
# Pim-3 = Pim-3 (Homo sapiens (Human), UniProt Q86V86); test: Pim-3 kinase assay (Pim enzyme assays, Example A); type: biochemical; conditions: 1 mM ATP, BAD peptide substrate; read-out: PIM3 IC50
# Method: as §1
# pBAD in KMS.12.BM cells = test: Pim pBAD signaling assay in KMS.12.BM cells (Example B); type: cell-based; conditions: Homo sapiens, 2.5 h incubation, pBAD ELISA
# Method: KG-1A cells are purchased from ATCC (Manassas, Va.) and KMS.12.BM cells are purchased from NIBIO, JCRB cell bank (Tokyo, Japan) and maintained in the culture mediums recommended, RPMI, 10% FBS and IMDM 20% FBS (Mediatech, Manassas, Va.) respectively. To measure the pBAD inhibitory activity of the compounds, both cell lines are plated with the culture medium (1×10^6/well/100 μL for KG1A and 4×10^5 cells/well/in 100 μL for KMS12BM) into 96-well V bottom polypropylene plates (Matrix, Thermo Fisher, USA) and incubated 30 min. at 37° C. to normalize cell signaling from handling. Test compounds are added at an appropriate concentration range and further incubated for 2.5 h for KMS.12.BM cells and 4 h for KG1-A cells. Plates are centrifuged at 2000 RPM for 10 min. and supernatants aspirated. 100 μL lysis buffer with protease inhibitors (Cell Signaling Technologies, Danver, Mass., Sigma, St Louis Mo., EMD, USA) is added to the pellets, mixed well and set on ice for 30 min. Lysates are frozen overnight at −80° C. To measure the pBAD activity, a Cell Signaling ELISA kit (Cell Signaling Path Scan phosphor pBAD ELISA) is utilized. 50 μL of the lysate is tested per the ELISA protocol and the data analysis is performed by software on a SpectrMax5 plate reader (Molecular Devices, Sunnyvale, Calif.). IC50 determination is performed by fitting the curve of percent inhibition versus the log of the inhibitor concentration using the GraphPad Prism 5.0 software.
# Sequence of Pim-1 (P11309 whole entry): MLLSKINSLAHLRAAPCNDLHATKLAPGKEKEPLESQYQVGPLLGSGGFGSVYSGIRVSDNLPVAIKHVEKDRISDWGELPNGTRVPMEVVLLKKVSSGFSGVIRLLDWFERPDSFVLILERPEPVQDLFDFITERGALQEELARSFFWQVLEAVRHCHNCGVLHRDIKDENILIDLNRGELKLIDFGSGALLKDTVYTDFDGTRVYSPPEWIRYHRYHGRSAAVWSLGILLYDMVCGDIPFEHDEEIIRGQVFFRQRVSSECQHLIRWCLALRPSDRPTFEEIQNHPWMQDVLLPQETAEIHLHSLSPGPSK
# Sequence of Pim-2 (Q9P1W9 whole entry): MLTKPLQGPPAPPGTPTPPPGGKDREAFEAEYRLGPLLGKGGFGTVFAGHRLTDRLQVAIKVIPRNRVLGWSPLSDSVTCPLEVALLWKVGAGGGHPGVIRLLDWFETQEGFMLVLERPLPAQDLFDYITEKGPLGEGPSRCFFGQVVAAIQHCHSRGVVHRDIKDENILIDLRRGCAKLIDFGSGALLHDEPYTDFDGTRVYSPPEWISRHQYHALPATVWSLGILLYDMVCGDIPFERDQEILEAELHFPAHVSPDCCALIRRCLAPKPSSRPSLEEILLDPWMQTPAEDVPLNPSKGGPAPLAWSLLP
Structure (SMILES),IC50 (Pim-1) [nM],IC50 (Pim-2) [nM],IC50 (Pim-3) [nM],IC50 (pBAD in KMS.12.BM cells) [nM]
"C[C@@H]1C[C@H](N)CN(c2ccncc2NC(=O)c2ccc3ncc(-c4c(F)cccc4F)cc3n2)C1 [Example 1, N-{4-[(3S,5R)-3-Amino-5-methylpiperidin-1-yl]pyridin-3-yl}-7-(2,6-difluorophenyl)-1,5-naphthyridine-2-carboxamide]",≤ 10,≤ 100,≤ 10,≤ 50
"COC1CCN(c2ccc3ccc(C(=O)Nc4cnccc4N4C[C@H](C)C[C@H](N)C4)nc3c2)CC1 [Example 25, N-{4-[(3S,5R)-3-Amino-5-methylpiperidin-1-yl]pyridin-3-yl}-7-(4-methoxypiperidin-1-yl)quinoline-2-carboxamide]",≤ 10,≤ 100,≤ 10,≤ 50
"C[C@@H]1C[C@H](N)CN(c2ccncc2NC(=O)c2ccc3ccc(N4CCN(C)CC4)cc3n2)C1 [Example 19, N-{4-[(3S,5R)-3-Amino-5-methylpiperidin-1-yl]pyridin-3-yl}-7-(4-methylpiperazin-1-yl)quinoline-2-carboxamide]",≤ 10,100 to 1000,≤ 10,250 to 2000
"COc1ccc(-c2cnc3ccc(C(=O)Nc4cnccc4N4C[C@@H](N)[C@H](O)[C@@H](C5CC5)C4)nc3c2)cn1 [Example 36, N-{4-[(3R,4R,5S)-3-Amino-5-cyclopropyl-4-hydroxypiperidin-1-yl]pyridin-3-yl}-7-(6-methoxypyridin-3-yl)-1,5-naphthyridine-2-carboxamide]",≤ 10,≤ 100,≤ 10,≤ 50
"COc1cc(F)c(-c2cnc3ccc(C(=O)Nc4cnccc4N4C[C@@H](N)[C@H](O)[C@@H](C5CC5)C4)nc3c2)c(F)c1 [Example 35, N-{4-[(3R,4R,5S)-3-Amino-5-cyclopropyl-4-hydroxypiperidin-1-yl]pyridin-3-yl}-7-(2,6-difluoro-4-methoxyphenyl)-1,5-naphthyridine-2-carboxamide]",≤ 10,≤ 100,≤ 10,≤ 50
"COc1cc(F)c(-c2cnc3ccc(C(=O)Nc4cnccc4N4C[C@H](C)C[C@H](N)C4)nc3c2)c(F)c1 [Example 4, N-{4-[(3S,5R)-3-Amino-5-methylpiperidin-1-yl]pyridin-3-yl}-7-(2,6-difluoro-4-methoxyphenyl)-1,5-naphthyridine-2-carboxamide]",≤ 10,≤ 100,≤ 10,≤ 50
"COC1CCN(c2ccc3ccc(C(=O)Nc4cnccc4N4C[C@@H](N)[C@H](O)[C@@H](C)C4)nc3c2)CC1 [Example 24, N-{4-[(3R,4R,5S)-3-Amino-4-hydroxy-5-methylpiperidin-1-yl]pyridin-3-yl}-7-(4-methoxypiperidin-1-yl)quinoline-2-carboxamide]",≤ 10,≤ 100,≤ 10,≤ 50
"C[C@H]1CN(c2ccncc2NC(=O)c2ccc3ccc(N4CCCC4)cc3n2)C[C@@H](N)[C@@H]1O [Example 30, N-{4-[(3R,4R,5S)-3-Amino-4-hydroxy-5-methylpiperidin-1-yl]pyridin-3-yl}-7-pyrrolidin-1-ylquinoline-2-carboxamide]",≤ 10,≤ 100,≤ 10,50 to 250
"C[C@@H]1C[C@H](N)CN(c2ccncc2NC(=O)c2ccc3ccc(-c4ccccc4C#N)cc3n2)C1 [Example 49, N-{4-[(3S,5R)-3-Amino-5-methylpiperidin-1-yl]pyridin-3-yl}-7-(2-cyanophenyl)quinoline-2-carboxamide]",≤ 10,≤ 100,≤ 10,≤ 50
"C[C@@H]1C[C@H](N)CN(c2ccncc2NC(=O)c2ccc3ccc(N4CCC4)cc3n2)C1 [Example 34, N-{4-[(3S,5R)-3-Amino-5-methylpiperidin-1-yl]pyridin-3-yl}-7-azetidin-1-ylquinoline-2-carboxamide]",≤ 10,≤ 100,≤ 10,50 to 250
